Results: paper PMC3501554 (Drug and alcohol dependence, 2012)

Key:
[1] = following inhalation of 200 mg incinerated marijuana; ref Wilson et al., 2006; cited from earlier work
C57BL/6J mice = assay: Observable effects; format: in vivo; details: Rimonabant (3 mg/kg s.c., 10 min before) / 50 mg placebo smoke

Row | Compound | Brain concentration of THC [1] [ng/g] | Hyperreflexia, percentage of mice showing presence of observable effect (C57BL/6J mice) [%] | Ptosis, percentage of mice showing presence of observable effect (C57BL/6J mice) [%] | Straub Tail, percentage of mice showing presence of observable effect (C57BL/6J mice) [%]
1 | CCCCCc1cc(O)c2c(c1)OC(C)(C)[C@@H]1CCC(C)=C[C@@H]21 [THC, Δ^9-tetrahydrocannabinol] | 433 ± 66 | – | – | –
2 | Cc1c(C(=O)NN2CCCCC2)nn(-c2ccc(Cl)cc2Cl)c1-c1ccc(Cl)cc1 [Rimonabant] | – | 0 | 0 | 0
